Assay results from US7923465B2, “Cannabinoid receptor ligands, pharmaceutical compositions containing them, and process for their preparation” (priority 2005, dated 2011).
Like-named read-outs stand apart in the source and are kept apart here.

Experiments:
CB1 = CB1 (Rattus norvegicus, UniProt P20272); assay: Rat CB1 receptor binding using brain membrane, [3H]SR141716A displacement (Protocol I); parameters: CB1 receptor present in a rat brain membrane preparation; from tissue; host or cells: rat brain membrane; inhibition: dose or concentration left out as unconfirmed; details: 1 h
CB1, sequence (P20272 whole entry): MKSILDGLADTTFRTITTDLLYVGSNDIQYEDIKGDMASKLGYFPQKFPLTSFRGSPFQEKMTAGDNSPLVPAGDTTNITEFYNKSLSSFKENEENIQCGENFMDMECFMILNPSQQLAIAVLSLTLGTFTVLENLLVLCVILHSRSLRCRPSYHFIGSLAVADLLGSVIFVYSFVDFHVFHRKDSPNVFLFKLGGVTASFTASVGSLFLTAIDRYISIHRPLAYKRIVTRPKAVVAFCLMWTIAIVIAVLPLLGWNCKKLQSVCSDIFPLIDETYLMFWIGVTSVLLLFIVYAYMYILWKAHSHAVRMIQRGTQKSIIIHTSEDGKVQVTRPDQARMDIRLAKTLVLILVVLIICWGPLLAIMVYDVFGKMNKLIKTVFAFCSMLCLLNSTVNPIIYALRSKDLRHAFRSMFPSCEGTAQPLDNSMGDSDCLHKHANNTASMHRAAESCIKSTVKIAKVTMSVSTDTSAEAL
Procedure: I. In Vitro Protocol for Rat CB1 Receptor Binding Using Brain Membrane
In this assay, [^3H]SR141716A (5-(4-chlorophenyl)-1-(2,4-dichlorophenyl)-4-methyl-N-(1-piperidyl)pyrazole-3-carboxamide) was used to bind the CB1 receptor present in a rat brain membrane preparation which can be displaced by unlabeled ligands having affinity to the CB1 receptor.
The assay was performed according to the modified method of Thomas et al., 1998 (JPET 285: 285-292). The total reaction mixture ([…]) contained Tris-BSA buffer (50 mM Tris, pH 7.4 with 1.5% BSA) or unlabeled SR141716A […] or test samples […], [^3H] SR141716A (2 nM) and […] of rat brain membrane. The non-specific binding was defined by […] of SR141716A. The assay mixture was incubated at 37° C. for 1 hour. The reaction was then stopped by rapid filtration under vacuum using Whatman GF/B-96 micro filter plate. A scintillation cocktail was added and radioactive counts were measured using a Topcount beta scintillation counter.
The standard and test sample dilutions were made in an assay buffer containing either ethanol or DMSO at a final concentration of 1%.
The percent (%) displacement by a test ligand was calculated by comparing the specific bound values.

hCB2 = hCB2 (Homo sapiens, UniProt P34972); assay: In vitro binding assay using hCB2-CHO membranes, [3H]-CP-55,940 displacement (Protocol IV); parameters: expressed in transfected cells; host or cells: CHO (hCB2-CHO, generated in-house); details: 1 h; hCB2-CHO membranes, [3H]-CP-55,940 displacement; read-out: % Displacement Protocol IV
hCB2, sequence (P34972 whole entry): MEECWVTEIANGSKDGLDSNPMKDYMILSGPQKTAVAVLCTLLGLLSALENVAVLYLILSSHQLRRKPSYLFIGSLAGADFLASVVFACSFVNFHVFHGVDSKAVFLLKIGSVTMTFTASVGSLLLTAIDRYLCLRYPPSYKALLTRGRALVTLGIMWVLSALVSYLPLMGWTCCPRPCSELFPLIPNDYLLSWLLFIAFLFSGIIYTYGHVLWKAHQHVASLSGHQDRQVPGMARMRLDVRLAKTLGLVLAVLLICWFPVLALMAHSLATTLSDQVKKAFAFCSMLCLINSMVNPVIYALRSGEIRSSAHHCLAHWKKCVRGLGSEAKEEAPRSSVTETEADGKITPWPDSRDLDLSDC
Summary of the method: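 Displacement of [3H]-CP-55,940 (0.75 nM) from membranes of CHO cells expressing human CB2 (25-50 μg) was measured in Tris-BSA buffer pH 7.4 with 5 mM MgCl2, 1 mM EDTA, 0.1% BSA, 1 h at 30 °C. Test compounds were at 300 nM final; nonspecific binding defined with 0.5 μM CP-55,940. Values are % displacement of specific binding.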

[1] = rat brain membrane, [3H]SR141716A displacement, read-out: % Displacement Protocol I

SMILES | inhibition (CB1; [1]) [%] | melting point [°C] | inhibition at 0.3 µM (hCB2) [%] | inhibition (CB1; read-out: % Displacement Protocol I, rat brain membrane, [3H]SR141716A displacement) [%]
O=C(NNc1ccccc1F)c1nn(-c2ccc(Cl)cc2)c2c1C1CCC2C1 (stereo not shown) [Example 232, N(3)-[(2-Fluorophenyl)amino]-1-(4-chlorophenyl)-4,5,6,7-tetrahydro-1H-4,7-methano-indazole-3-carboxamide] | 49.7 | 91 | 13.8 | 
O=C(NCc1ccccc1)c1nn(-c2ccc(Br)cc2)c2c1C1CCC2C1 (stereo not shown) [Example 276, N(3)-Benzyl-1-(4-bromophenyl)-4,5,6,7-tetrahydro-1H-4,7-methano-indazole-3-carboxamide] | 25.3 | 89 | 14.1 | 
O=C(NNc1ccccc1)c1nn(-c2ccccc2Br)c2c1C1CCC2C1 (stereo not shown) [Example 273, N(3)-Phenylamino-1-(2-bromophenyl)-4,5,6,7-tetrahydro-1H-4,7-methano-indazole-3-carboxamide] | -5.9 | 219 | 26.2 | 
O=C(NNc1ccccc1)c1nn(-c2ccc(Br)cc2)c2c1C1CCC2C1 (stereo not shown) [Example 277, N(3)-Phenylamino-1-(4-bromophenyl)-4,5,6,7-tetrahydro-1H-4,7-methano-indazole-3-carboxamide] | -12.8 | 138 | 22.1 | 
O=C(NCc1ccc(Cl)cc1)c1nn(-c2ccc(Cl)cc2Cl)c2c1C1CCC2C1 (stereo not shown) [Example 250, N(3)-(4-Chlorobenzyl)-1-(2,4-dichlorophenyl)-4,5,6,7-tetrahydro-1H-4,7-methano-indazole-3-carboxamide] | 27.1 | 139 to 142 | 27.9 | 
COc1ccc(-n2nc(C(=O)NCc3ccccc3Cl)c3c2C2CC4CC(CC3C4)C2)cc1 [Example 164, N7-(2-Chlorobenzyl)-5-(4-methoxyphenyl)-5,6-diazatetracyclo[7.3.1.1^3,11.0^4,8]tetradeca-4(8),6-diene-7-carboxamide] | 8.2 | 178 | 13.2 | 
Cc1ccc(-n2nc(C(=O)NN3CCCCC3)c3c2C2CC4CC(CC3C4)C2)cc1 [Example 160, N(7)-Piperidino-5-(4-methylphenyl)-5,6-diazatetracyclo[7.3.1.1^3,11.0^4,8]tetradeca-4(8),6-diene-7-carboxamide] | 10 | 228 to 232 | 20.8 | 
O=C(NNc1ccc(Cl)cc1)c1n[nH]c2c1C1(c3ccc(Cl)cc3)CCC2C1 (stereo not shown) [Example 229, N(3)-[(4-Chlorophenyl)amino]-4-(4-chlorophenyl)-4,5,6,7-tetrahydro-1H-4,7-methano-indazole-3-carboxamide] | 47.1 | 202 to 205 | 24.6 | 
O=C(NNc1ccc(F)cc1)c1nn(-c2ccc(Cl)cc2)c2c1C1CCC2C1 (stereo not shown) [Example 234, N(3)-[(4-Fluorophenyl)amino]-1-(4-chlorophenyl)-4,5,6,7-tetrahydro-1H-4,7-methano-indazole-3-carboxamide] | 36.3 | 212 | 10.6 | 
O=C(NCc1ccccc1)c1nn(-c2ccccc2)c2c1C1CCC2C1 (stereo not shown) [Example 203, N(3)-Benzyl-1-phenyl-4,5,6,7-tetrahydro-1H-4,7-methano-indazole-3-carboxamide] | -10.4 | 115 |  | 
O=C(NN1CCCCC1)c1nn(-c2ccc(Cl)cc2)c2c1C1CCC2C1 (stereo not shown) [Example 209, N(3)-Piperidino-1-(4-chlorophenyl)-4,5,6,7-tetrahydro-1H-4,7-methano-indazole-3-carboxamide] | 23.5 | 78 to 81 | 50.5 | 
O=C(NNc1ccccc1)c1nn(-c2ccc(F)cc2)c2c1C1CCC2C1 (stereo not shown) [Example 284, N(3)-Phenylamino-1-(4-fluorophenyl)-4,5,6,7-tetrahydro-1H-4,7-methano-indazole-3-carboxamide] | 13.7 | 163 | 0.9 | 
O=C(NNc1ccccc1)c1nn(-c2ccc(Cl)cc2)c2c1C1CCC2C1 (stereo not shown) [Example 228, N(3)-Phenylamino-1-(4-chlorophenyl)-4,5,6,7-tetrahydro-1H-4,7-methano-indazole-3-carboxamide] | 16.1 | 138 to 141 | 9.4 | 
COc1ccc(-n2nc(C(=O)NNc3ccc(Cl)cc3Cl)c3c2C2CC4CC(CC3C4)C2)cc1 [Example 165, N(7)-(2,4-Dichlorophenylamino)-5-(4-methoxyphenyl)-5,6-diazatetracyclo[7.3.1.1^3,11.0^4,8]tetradeca-4(8),6-diene-7-carboxamide] | 14.2 | 199 | 45.3 | 
O=C(NNc1ccccc1)c1nn(-c2ccc(F)cc2F)c2c1C1CCC2C1 (stereo not shown) [Example 285, N(3)-Phenylamino-1-(2,4-difluorophenyl)-4,5,6,7-tetrahydro-1H-4,7-methano-indazole-3-carboxamide] | 61.9 | 161 |  | 
O=C(NNc1ccc(Cl)c(Cl)c1)c1nn(-c2ccc(Cl)cc2Cl)c2c1C1CCC2C1 (stereo not shown) [Example 262, N(3)-[(3,4-Dichlorophenyl)amino]-1-(2,4-dichlorophenyl)-4,5,6,7-tetrahydro-1H-4,7-methano-indazole-3-carboxamide] | -1.6 | 176 to 179 | 32.6 | 
Cc1ccc(-n2nc(C(=O)NNc3ccc(Cl)cc3Cl)c3c2C2CC4CC(CC3C4)C2)cc1 [Example 161, N(7)-(2,4-Dichlorophenylamino)-5-(4-methylphenyl)-5,6-diazatetracyclo[7.3.1.1^3,11.0^4,8]tetradeca-4(8),6-diene-7-carboxamide] | 27.9 | 208 to 215 | 39.4 | 
O=C(NCc1ccc(Cl)cc1)c1nn(-c2ccc(Cl)cc2)c2c1C1CCC2C1 (stereo not shown) [Example 222, N(3)-(4-Chlorobenzyl)-1-(4-chlorophenyl)-4,5,6,7-tetrahydro-1H-4,7-methano-indazole-3-carboxamide] | 39.4 | 157 to 160 | 15.7 | 
O=C(NCc1ccccc1)c1nn(-c2ccccc2Br)c2c1C1CC3CC(C1)CC2C3 [Example 102, N(7)-Benzyl-5-(2-bromophenyl)-5,6-diazatetracyclo[7.3.1.1^3,11.0^4,8]tetradeca-4(8),6-diene-7-carboxamide] | 27.3 | 20 | 0.74 | 
O=C(NCc1ccccc1Cl)c1nn(-c2ccc(Cl)cc2Cl)c2c1C1CCC2C1 (stereo not shown) [Example 249, N(3)-(2-Chlorobenzyl)-1-(2,4-dichlorophenyl)-4,5,6,7-tetrahydro-1H-4,7-methano-indazole-3-carboxamide] | 47.7 | 117 to 120 |  | 
O=C(NNc1ccc(Cl)cc1Cl)c1nn(-c2ccccc2Cl)c2c1C1CC3CC(C1)CC2C3 [Example 181, N(7)-(2,4-Dichlorophenylamino)-5-(2-chlorophenyl)-5,6-diazatetracyclo[7.3.1.1^3,11.0^4,8]tetradeca-4(8),6-diene-7-carboxamide] | 16.4 | 233 to 240 |  | 
O=C(NNc1ccc(F)cc1)c1nn(-c2ccc(Cl)cc2)c2c1C1CC3CC(C1)CC2C3 [Example 130, N(7)-(4-Fluorophenylamino)-5-(4-chlorophenyl)-5,6-diazatetracyclo[7.3.1.1^3,11.0^4,8]tetradeca-4(8),6-diene-7-carboxamide] | 60.6 | 125 to 127 |  | 
O=C(NN1CCCCC1)c1nn(-c2ccc(F)cc2F)c2c1C1CCC2C1 (stereo not shown) [Example 289, N(3)-Piperidino-1-(2,4-difluorophenyl)-4,5,6,7-tetrahydro-1H-4,7-methano-indazole-3-carboxamide] | 71.3 | 143 |  | 
O=C(NC1CCCCC1)c1nn(-c2ccc(F)cc2)c2c1C1CCC2C1 (stereo not shown) [Example 279, N(3)-Cyclohexyl-1-(4-fluorophenyl)-4,5,6,7-tetrahydro-1H-4,7-methano-indazole-3-carboxamide] |  | 127 |  | 62
O=C(NNc1cccc(F)c1)c1nn(-c2ccc(Cl)cc2)c2c1C1CC3CC(C1)CC2C3 [Example 133, N(7)-(3-fluorophenylamino)-5-(4-chlorophenyl)-5,6-diazatetracyclo[7.3.1.1^3,11.0^4,8]tetradeca-4(8),6-diene-7-carboxamide] | 59.7 | 203 |  | 
